Experimental data reported in patent US7423020B2, “Treatment of mood disorders by administration of SMR1” (Institut Pasteur, priority 2001, dated 2008).
Where a SMILES comes first, the peptide text is derived from it.

Columns and labels:
NEP [1] = molecular target: T1, NEP (Rattus norvegicus, UniProt P07861); test: Met-enkephalin degradation by rat spinal cord slices, RIA assay; assay type: biochemical; details: 10 μM; fresh spinal cord slices; 20 min at 25° C.; 10 μM Met-enkephalin
T1 construct: incubations of membrane and fresh tissue slice preparations from nervous tissues; from tissue; host or cells: rat spinal cord (dorsal zone), fresh slices or 100 000 x g membrane fraction
T1 sequence (P07861 1-750): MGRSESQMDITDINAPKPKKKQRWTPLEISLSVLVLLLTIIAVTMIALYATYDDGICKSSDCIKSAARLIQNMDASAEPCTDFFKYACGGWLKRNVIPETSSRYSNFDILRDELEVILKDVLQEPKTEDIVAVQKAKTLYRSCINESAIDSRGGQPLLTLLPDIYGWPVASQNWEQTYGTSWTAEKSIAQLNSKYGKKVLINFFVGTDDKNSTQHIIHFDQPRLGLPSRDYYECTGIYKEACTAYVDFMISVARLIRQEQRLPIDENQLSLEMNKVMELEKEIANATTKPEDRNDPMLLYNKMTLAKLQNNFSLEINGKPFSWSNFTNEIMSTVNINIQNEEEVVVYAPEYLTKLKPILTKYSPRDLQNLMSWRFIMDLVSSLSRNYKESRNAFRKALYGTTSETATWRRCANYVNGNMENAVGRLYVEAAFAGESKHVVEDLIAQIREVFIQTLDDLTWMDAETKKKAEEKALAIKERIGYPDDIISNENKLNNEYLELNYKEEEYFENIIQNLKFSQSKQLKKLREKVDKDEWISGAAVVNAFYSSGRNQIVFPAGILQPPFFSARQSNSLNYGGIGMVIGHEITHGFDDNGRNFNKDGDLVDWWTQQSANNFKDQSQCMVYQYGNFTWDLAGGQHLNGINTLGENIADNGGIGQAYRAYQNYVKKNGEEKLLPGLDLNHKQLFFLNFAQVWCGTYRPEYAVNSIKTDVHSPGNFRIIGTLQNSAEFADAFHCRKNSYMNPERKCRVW
Description: (§1) For the experiments of analysis of the NEP peptidase activity, an ex vivo model using incubations of membrane and fresh tissue slice preparations from nervous tissues that are known to be appropriate for exploring NEP peptidase activity: i.e. the dorsal zone of rat spinal cord, was first developed. […] (NEN, 12.5-25 nM) were used.
(§2) The objective was to measure the NEP-specific endoproteolysis of these substrates.

male Wistar/AF EOPS rats [2] = test: Behavioral despair test (forced swimming); assay type: in vivo, rat
Description: Forty male Wistar/AF EOPS rats (Iffa-Credo Breeding Centre, 69-St-Germain sur l'Arbresle, France), weighing 300 to 320 g, were used. On arrival, the rats were labelled and distributed randomly in pairs into type F polycarbonate cages (48×27×20 cm, U.A.R., 91-Epinay-Sur-Orge, France). The animals were stabled in an air-conditioned animal house, at a temperature of 22-24° C. The rats were given food (M25 croquettes, Ets Pietrement, 77-Provins, France) and drink ad libitum and were subjected to a 12-hour light-darkness cycle.
After one week of familiarization with the laboratory conditions, the rats were weighed and distributed randomly into 3 treatment groups (n=12). The rats of the different groups will all be handled in the same way and under the same conditions.
The behavioral despair test takes place over two sessions: • a 15-minute test session; • a 5-minute retest session, performed 24 hours later.
During the test session, the rat was subjected to forced swimming in a Plexiglas cylinder (20 cm in diameter and 50 cm in height, containing 25 cm of water at 25° C.) and its behavior was recorded over 15 minutes. At the end of the test, the rat was removed from the water, dried gently, treated and then returned to its dwelling cage.
During the retest, 24 hours later, the rat was again placed in the water and its behavior was recorded over 5 minutes.
The recorded variables are the period of immobility during the first 5 minutes of both the test and the retest.
The peptide FG-005 (SMR1-QHNPR) (SEQ ID NO: 1) was suspended at a rate of 500 μg per 5 ml of 0.01N acetic acid, and then diluted with PBS to be administered at doses of 50 and 100 μg/kg via the i.v. route into the dorsal caudal vein of the rat, immediately after the test and 300 and 5 minutes before the retest the following day.
A bilateral probability paired t test was used to compare the two periods of immobility of the test with those of the retest in each of the groups. The results are expressed as an average ±standard error of mean (SEM)(FIG. 4). The statistical and graphical processing was performed using Statview5 and DeltaGraph® Pro 3.5 software.

male Wistar/AF EOPS rats [3] = test: Behavioral despair test (forced swimming); assay type: in vivo, rat; set-up: change of period of immobility, retest compared with test: dose or concentration left out as unconfirmed; details: for Immobility period, Retest / Immobility period, Test: first 5 minutes, n = 10; for Immobility period, Test: test session before any treatment
NEP [4] = molecular target: T1, NEP; test: 3H-Substance P hydrolysis by rat spinal cord slices; assay type: biochemical; details: 25° C., over 30 min incubation, read-out: inhibition of Substance P degradation
Description: as §1, §2
The C-18 Sep-Pak cartridges (Waters) were used to analyze the hydrolysis of the radiolabeled peptides: they separate compounds according to their differences in polarity. This solid-phase extraction procedure allows isolating the substrate from its metabolites, since the hydrophobic character of the peptide metabolites is reduced or even lost compared to the intact peptide substrate.
The radioactivity of eluted and isolated compounds is determined by liquid scintillation spectrometry.

adult male rats = details: PCT patent application WO 01/00 221; cited from earlier work

With `N=C(N)NCCC[C@H](NC(=O)[C@@H]1CCCN1C(=O)[C@H](CC(N)=O)NC(=O)[C@H](Cc1c[nH]cn1)NC(=O)[C@@H](N)CCC(N)=O)C(=O)O` [SMR1-QHNPR, QHNPR] (H-QHNPR-OH; N-terminus and C-terminus assumed) as the compound, how does the “protection of Met-enkephalin from degradation (RIA)” value (NEP [1]) read?
The value was 96%.

And the “overall effect in the behavioral despair test” value (male Wistar/AF EOPS rats [2]; FG-005 50 and 100 μg/kg i.v., 8-OH-DPAT as reference substance)?
Its value is “antidepressant effect”.

What about the “change of period of immobility, retest compared with test” value (“change of period of immobility, retest” for short) (male Wistar/AF EOPS rats [2]; dose of 50 μg/kg) of the same compound?
Its value is “increase their period of immobility during the retest”.

What about the “change of period of immobility, retest” value (male Wistar/AF EOPS rats [2]; doses of 50 and 100 μg/kg, i.v., immediately after the test and 300 and 5 minutes before the retest) of the same compound?
Its value is “do not increase their periods of immobility during the retest”.

And the “Immobility period, Retest” value (male Wistar/AF EOPS rats [3]; 50 μg/kg i.v., 1440, 300, 5 min before the retest)?
Its value is 141.20 ± 21.28.

What about the “Immobility period, Retest” value (male Wistar/AF EOPS rats [3]; 100 μg/kg i.v., 1440, 300, 5 min before the retest) of the same compound?
Its value is 121.50 ± 17.47.

What about the “Immobility period, Test” value (male Wistar/AF EOPS rats [3]; FG-50 group, 50 μg/kg i.v.) of the same compound?
Its value is 119.00 ± 13.79.

What about the “Immobility period, Test” value (male Wistar/AF EOPS rats [3]; FG-100 group, 100 μg/kg i.v.) of the same compound?
Its value is 138.30 ± 11.03.

And the “change of period of immobility, retest” value (male Wistar/AF EOPS rats [3]; dose of 100)?
Its value is “reduce it”.

What about the inhibition at 10 µM (NEP [4]) of the same compound?
Its inhibition at 10 µM is 75%.

And the “effect on sexual behavior and aggressive impulse behavior” value (adult male rats)?
The value was “dose-dependent improvement on the sexual behavior of adult male rats with a loss of the aggressive impulse behavior”.
